Experimental data taken from publication PMC6273138, “Inhibitory Effects of Aschantin on Cytochrome P450 and Uridine 5′-diphospho-glucuronosyltransferase Enzyme Activities in Human Liver Microsomes” (Molecules, 2016).
Like-named read-outs stand apart in the source and are kept apart here.

How the values were obtained:
CYP2D6 = CYP2D6 (Homo sapiens, UniProt P10635); experiment: CYP2D6-catalyzed bufuralol 1′-hydroxylase inhibition in pooled human liver microsomes
Procedure: (§1) The degrees of inhibition (the IC50 values) of aschantin toward CYP1A2, CYP2A6, CYP2C8, CYP2C9, CYP2C19, CYP2D6, and CYP3A4 were evaluated using pooled human liver microsomes employing a cocktail of CYP substrates and liquid chromatography-tandem mass spectrometry (LC-MS/MS). […] After 3 min pre-incubation at 37 °C, the reactions were initiated by addition of NADPH and incubation proceeded for 15 min at 37 °C in a shaking water bath. The reaction was stopped by placing the tubes on ice and adding 100 µL amounts of ice-cold methanol containing internal standards (^13C2,^15N-acetaminophen for acetaminophen and N-desethylamodiaquine; d9-1′-hydroxybufuralol for 4′-hydroxydiclofenac; and 7-hydroxycoumarin, 4′-hydroxy-mephenytoin, 1′-hydroxybufuralol, and 1′-hydroxymidazolam). Then the incubation mixtures were centrifuged at 13,000× g for 4 min at 4 °C. All assays were performed in triplicate and the average values were used in calculations.
(§2) To this end, we employed a tandem mass spectrometer (TSQ Quantum Access, Thermo Scientific, San Jose, CA, USA) coupled to a Nanospace SI-2 LC system (Shiseido, Tokyo, Japan). The column and autosampler temperatures were 50 °C and 6 °C, respectively. The mass spectrometer was equipped with an electrospray ionization (ESI) source and was operated in positive ion mode. The ESI source settings for metabolite ionization were as follows: capillary voltage, 4200 V; vaporizer temperature, 350 °C; capillary temperature 330 °C; sheath gas pressure, 35 psi; and auxiliary gas pressure, 15 psi. […] Analytical data were processed using Xcalibur® software (Thermo Scientific).

CYP2B6 = biological target: T1, CYP2B6 (Homo sapiens, UniProt P20813); experiment: CYP2B6-catalyzed bupropion hydroxylase inhibition in pooled human liver microsomes; type: in vitro ADME; settings: for IC50: CYP2B6 bupropion hydroxylase, 50 µM bupropion
T1 construct: tissue Corning Life Sciences 452161; host or cells: pooled human liver microsomes
T1 sequence (P20813 1-491): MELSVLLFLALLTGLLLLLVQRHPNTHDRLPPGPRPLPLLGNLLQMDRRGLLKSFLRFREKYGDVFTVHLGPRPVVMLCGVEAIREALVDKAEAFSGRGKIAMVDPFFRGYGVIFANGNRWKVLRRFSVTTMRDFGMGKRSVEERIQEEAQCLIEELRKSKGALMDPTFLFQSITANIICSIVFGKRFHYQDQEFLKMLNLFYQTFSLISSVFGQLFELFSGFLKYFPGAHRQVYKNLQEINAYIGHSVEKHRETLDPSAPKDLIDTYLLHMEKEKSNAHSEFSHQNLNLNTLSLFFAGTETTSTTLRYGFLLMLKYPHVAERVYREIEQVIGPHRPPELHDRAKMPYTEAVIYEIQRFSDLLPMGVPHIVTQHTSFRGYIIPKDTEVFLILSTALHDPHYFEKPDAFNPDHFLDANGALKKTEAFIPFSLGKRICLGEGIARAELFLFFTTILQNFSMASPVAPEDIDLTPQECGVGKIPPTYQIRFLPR
Procedure: The effects of aschantin on CYP2B6-catalyzed bupropion hydroxylase activity were evaluated using LC-MS/MS with pooled human liver microsomes. […] The reaction was initiated by adding bupropion. Hydroxybupropion levels were determined using the LC-MS/MS method described above; the SRM parameters were 256.1 > 238.0 for hydroxybupropion and 287.2 > 187.0 for d9-1′-hydroxybufuralol.

CYP3A4 = CYP3A4 (Homo sapiens, UniProt P08684); experiment: CYP3A4-catalyzed midazolam 1′-hydroxylase inhibition in pooled human liver microsomes; settings: for IC50: CYP3A4 midazolam 1′-hydroxylase, 2.5 µM midazolam
CYP3A4, sequence (P08684 2-503): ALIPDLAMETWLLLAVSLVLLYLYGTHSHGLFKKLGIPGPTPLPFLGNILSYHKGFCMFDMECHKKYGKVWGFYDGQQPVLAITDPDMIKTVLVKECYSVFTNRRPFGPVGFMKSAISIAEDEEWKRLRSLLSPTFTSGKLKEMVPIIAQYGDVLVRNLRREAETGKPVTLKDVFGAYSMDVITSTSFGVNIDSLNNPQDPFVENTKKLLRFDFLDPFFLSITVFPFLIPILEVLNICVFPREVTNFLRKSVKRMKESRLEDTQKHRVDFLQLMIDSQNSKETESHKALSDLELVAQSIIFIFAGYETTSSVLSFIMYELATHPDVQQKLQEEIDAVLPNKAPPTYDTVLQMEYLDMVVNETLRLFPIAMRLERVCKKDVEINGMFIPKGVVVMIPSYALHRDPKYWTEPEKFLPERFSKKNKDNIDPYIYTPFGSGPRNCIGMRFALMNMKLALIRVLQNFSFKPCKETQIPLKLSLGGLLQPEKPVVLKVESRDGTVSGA
Procedure: as §1, §2

UGT1A3 = biological target: T2, UGT1A3 (Homo sapiens, UniProt P35503); experiment: UGT1A3-catalyzed chenodeoxycholic acid 24-acyl-glucuronidation inhibition in pooled human liver microsomes; type: in vitro ADME
T2 construct: using pooled human liver microsomes incubated with the cocktail of UGT substrates; tissue Corning Life Sciences 452161; host or cells: pooled human liver microsomes
T2 sequence (P35503 29-534): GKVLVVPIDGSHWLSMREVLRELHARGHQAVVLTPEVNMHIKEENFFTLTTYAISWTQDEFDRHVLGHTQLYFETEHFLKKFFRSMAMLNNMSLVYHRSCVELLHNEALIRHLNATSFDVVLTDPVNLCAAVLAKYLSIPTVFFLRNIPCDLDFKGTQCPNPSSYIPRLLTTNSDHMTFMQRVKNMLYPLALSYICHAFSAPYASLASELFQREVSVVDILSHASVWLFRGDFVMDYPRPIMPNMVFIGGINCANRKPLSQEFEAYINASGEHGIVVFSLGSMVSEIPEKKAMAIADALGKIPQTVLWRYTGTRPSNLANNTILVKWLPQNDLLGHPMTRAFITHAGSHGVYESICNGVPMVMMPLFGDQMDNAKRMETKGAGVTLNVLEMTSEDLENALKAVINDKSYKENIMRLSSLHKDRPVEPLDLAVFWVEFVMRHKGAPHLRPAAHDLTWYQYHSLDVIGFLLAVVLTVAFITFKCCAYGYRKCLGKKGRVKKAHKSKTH
Procedure: The extents of aschantin on UGT1A1, UGT1A3, UGT1A4, UGT1A6, UGT1A9, and UGT2B7 were evaluated by LC-MS/MS, using pooled human liver microsomes incubated with the cocktail of UGT substrates. The method was modified from that of Joo et al..
The metabolites formed from the six UGT cocktail substrates were simultaneously measured using the LC-MS/MS method. […] The mass spectrometer was equipped with an ESI source and was operated in both positive and negative ion modes. […] Each metabolite was quantified via SRM in the negative ion (chenodeoxycholic acid 24-acyl-β-glucuronide, 567.2 > 391.0; mycophenolic acid glucuronide, 495.2 > 318.9; propofol glucuronide, 353.3 > 177.1) and positive ion (SN-38 glucuronide, 569.0 > 393.0; trifluoperazine glucuronide, 584.2 > 408.1; N-acetylserotonin-β-D-glucuronide, 395.2 > 219.0; naloxone 3-β-D-glucuronide, 504.0 > 310.0; meloxicam, 352.0 > 115.1) modes.

CYP2C8 = biological target: T3, CYP2C8 (Homo sapiens, UniProt P10632); experiment: Mechanism-based (time- and concentration-dependent) inactivation of CYP2C8 in human liver microsomes; type: in vitro ADME; settings: CYP2C8-mediated amodiaquine N-de-ethylation
T3 sequence (P10632 1-490): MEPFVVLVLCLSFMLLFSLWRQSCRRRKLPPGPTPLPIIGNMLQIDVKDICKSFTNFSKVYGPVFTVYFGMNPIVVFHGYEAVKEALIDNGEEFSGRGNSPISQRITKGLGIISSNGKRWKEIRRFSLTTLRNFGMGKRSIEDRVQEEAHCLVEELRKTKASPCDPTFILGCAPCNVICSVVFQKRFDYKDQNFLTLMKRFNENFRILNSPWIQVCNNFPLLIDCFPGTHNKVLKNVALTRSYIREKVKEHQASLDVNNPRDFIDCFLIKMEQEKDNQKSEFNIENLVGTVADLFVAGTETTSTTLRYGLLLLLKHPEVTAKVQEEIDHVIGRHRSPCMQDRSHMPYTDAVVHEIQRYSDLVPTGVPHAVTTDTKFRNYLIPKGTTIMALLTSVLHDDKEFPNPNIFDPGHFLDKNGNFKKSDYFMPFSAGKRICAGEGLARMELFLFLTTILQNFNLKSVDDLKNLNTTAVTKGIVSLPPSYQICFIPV
Procedure: The microsomes (1 mg/mL) were pre-incubated with various concentrations of aschantin in 50 mM potassium phosphate buffer (pH 7.4) in the presence of NADPH. Aliquots (10 µL) of the incubated mixtures were withdrawn at 5, 10, 15, and 20 min after incubation commenced and added to other tubes containing the CYP substrates (2 µM amodiaquine for CYP2C8, 10 µM diclofenac for CYP2C9, 100 µM [S]-mephenytoin for CYP2C19, or 2 µM midazolam for CYP3A4), 1 mM NADPH, 50 mM potassium phosphate buffer (pH 7.4), and 10 mM MgCl2, in 90 µL reaction mixtures. […] Aliquots (5 µL) of the diluted supernatants were analyzed by LC-MS/MS, as described above.

[1] = aschantin at 100 µM, human liver microsomes

CYP2D6, sequence (P10635 whole entry): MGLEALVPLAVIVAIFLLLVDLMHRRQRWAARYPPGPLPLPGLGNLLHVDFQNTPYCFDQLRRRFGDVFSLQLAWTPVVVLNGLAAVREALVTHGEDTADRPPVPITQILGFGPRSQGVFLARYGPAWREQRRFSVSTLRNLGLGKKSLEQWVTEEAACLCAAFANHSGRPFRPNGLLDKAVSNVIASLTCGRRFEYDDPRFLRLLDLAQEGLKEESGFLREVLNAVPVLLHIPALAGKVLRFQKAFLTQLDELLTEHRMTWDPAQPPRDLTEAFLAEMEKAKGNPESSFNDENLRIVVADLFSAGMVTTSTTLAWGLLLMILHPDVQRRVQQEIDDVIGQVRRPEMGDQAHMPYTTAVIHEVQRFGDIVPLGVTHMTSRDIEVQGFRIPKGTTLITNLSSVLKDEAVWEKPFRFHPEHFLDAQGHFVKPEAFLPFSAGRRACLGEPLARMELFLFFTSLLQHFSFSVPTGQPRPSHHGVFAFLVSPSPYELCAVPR

IC50 (CYP2D6): > 100 µM
inhibition of CYP2D6-mediated bufuralol 1′-hydroxylation (CYP2D6; [1]): negligibly inhibited
IC50 (CYP2D6; read-out: IC50 With Pre-incubation, CYP2D6 bufuralol 1′-hydroxylase, 5.0 µM bufuralol, 30 min pre-incubation with microsomes and NADPH): > 100 µM
IC50 (CYP2B6; 30 min pre-incubation with microsomes and NADPH, read-out: IC50 With Pre-incubation): 87.9 µM
IC50 (CYP2B6; pooled human liver microsomes, no pre-incubation, read-out: IC50 No Pre-incubation): > 100 µM
inhibition of CYP2B6-mediated bupropion hydroxylation (CYP2B6; [1]): negligibly inhibited
IC50 (CYP3A4; IC50 No Pre-incubation, pooled human liver microsomes, no pre-incubation): 57.5 µM
IC50 (CYP3A4; IC50 With Pre-incubation, 30 min pre-incubation with microsomes and NADPH): 14.4 µM
IC50 shift at 0.5 h (CYP3A4; human, pooled human liver microsomes, pH 7.4, probe midazolam (2.5 µM), 1′-hydroxylation): > 2.5
IC50 (UGT1A3; UGT1A3-catalyzed chenodeoxycholic acid 24-acyl-glucuronidation, 2 µM chenodeoxycholic acid, pooled human liver microsomes): > 200 µM
inhibition of UGT1A3-catalyzed chenodeoxycholic acid 24-acyl-glucuronidation (UGT1A3; aschantin at 200 µM, human liver microsomes): not inhibited
Ki (CYP2C8; read-out: Ki (apparent)): 10.2 µM
kinact (CYP2C8; pH 7.4, probe amodiaquine (2 µM)): 0.000933 s⁻¹
Compound: COc1cc([C@H]2OC[C@H]3[C@@H]2CO[C@@H]3c2ccc3c(c2)OCO3)cc(OC)c1OC [Aschantin]
